Source: ChEMBL document CHEMBL1201862, “PubChem BioAssay data set” (2004)
Calls of active or inactive are those of the source.

What was measured:
Activin receptor type-1 = biological target: T1, Activin receptor type-1 (Homo sapiens, UniProt Q04771); experiment: Navigating the Kinome. Panel member name: ACVR1; type: functional
T1 sequence (Q04771 whole entry): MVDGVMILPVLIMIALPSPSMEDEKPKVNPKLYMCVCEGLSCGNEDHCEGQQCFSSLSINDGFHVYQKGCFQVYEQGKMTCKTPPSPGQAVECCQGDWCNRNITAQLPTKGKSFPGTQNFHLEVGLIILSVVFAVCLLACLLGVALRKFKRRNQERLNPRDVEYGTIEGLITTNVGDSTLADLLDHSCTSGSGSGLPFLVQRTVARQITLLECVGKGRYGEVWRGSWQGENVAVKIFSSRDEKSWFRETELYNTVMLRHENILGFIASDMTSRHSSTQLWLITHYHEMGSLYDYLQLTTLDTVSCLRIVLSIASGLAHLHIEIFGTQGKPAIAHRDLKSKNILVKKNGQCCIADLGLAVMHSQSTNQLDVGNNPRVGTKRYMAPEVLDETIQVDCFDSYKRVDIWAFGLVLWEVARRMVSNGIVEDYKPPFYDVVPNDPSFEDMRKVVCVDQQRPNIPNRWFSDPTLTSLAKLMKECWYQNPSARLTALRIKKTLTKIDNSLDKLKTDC

[1] = biological target: Platelet-derived growth factor receptor alpha (Homo sapiens, UniProt P16234); experiment: Navigating the Kinome. Panel member name: PDGFRA; type: functional
[2] = biological target: Vascular endothelial growth factor receptor 2 (Homo sapiens, UniProt P35968); type: functional
[3] = biological target: G protein-coupled receptor kinase 5 (Homo sapiens, UniProt P34947); experiment: Navigating the Kinome. Panel member name: GPRK5; type: functional
[4] = biological target: Ribosomal protein S6 kinase alpha-3 (Homo sapiens, UniProt P51812); type: functional;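 note: measured within a kinome-wide profiling panel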
Chain of Ribosomal protein S6 kinase alpha-3 (P51812 whole entry): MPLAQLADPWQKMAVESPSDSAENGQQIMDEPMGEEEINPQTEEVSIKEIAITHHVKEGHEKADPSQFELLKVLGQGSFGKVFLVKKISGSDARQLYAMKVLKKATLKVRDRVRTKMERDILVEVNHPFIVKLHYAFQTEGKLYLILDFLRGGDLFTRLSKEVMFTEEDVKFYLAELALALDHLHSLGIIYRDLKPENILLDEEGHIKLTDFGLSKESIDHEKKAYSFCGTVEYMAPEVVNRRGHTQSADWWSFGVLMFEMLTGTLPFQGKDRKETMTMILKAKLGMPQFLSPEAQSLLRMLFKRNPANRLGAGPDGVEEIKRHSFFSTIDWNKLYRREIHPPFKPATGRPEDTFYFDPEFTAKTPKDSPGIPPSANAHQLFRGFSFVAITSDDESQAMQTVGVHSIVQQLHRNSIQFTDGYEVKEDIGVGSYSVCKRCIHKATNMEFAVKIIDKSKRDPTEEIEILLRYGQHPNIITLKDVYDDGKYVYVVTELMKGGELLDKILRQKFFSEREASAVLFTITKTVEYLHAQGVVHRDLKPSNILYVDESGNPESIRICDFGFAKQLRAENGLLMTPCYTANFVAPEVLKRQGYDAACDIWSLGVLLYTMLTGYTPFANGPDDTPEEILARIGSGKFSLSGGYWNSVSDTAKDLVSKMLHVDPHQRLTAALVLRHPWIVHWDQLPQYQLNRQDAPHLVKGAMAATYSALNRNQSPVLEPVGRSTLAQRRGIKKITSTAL

[5] = biological target: Cyclin-dependent kinase 8 (Homo sapiens, UniProt P49336); experiment: Navigating the Kinome. Panel member name: CDK8; type: functional
Chain of Cyclin-dependent kinase 8 (P49336 whole entry): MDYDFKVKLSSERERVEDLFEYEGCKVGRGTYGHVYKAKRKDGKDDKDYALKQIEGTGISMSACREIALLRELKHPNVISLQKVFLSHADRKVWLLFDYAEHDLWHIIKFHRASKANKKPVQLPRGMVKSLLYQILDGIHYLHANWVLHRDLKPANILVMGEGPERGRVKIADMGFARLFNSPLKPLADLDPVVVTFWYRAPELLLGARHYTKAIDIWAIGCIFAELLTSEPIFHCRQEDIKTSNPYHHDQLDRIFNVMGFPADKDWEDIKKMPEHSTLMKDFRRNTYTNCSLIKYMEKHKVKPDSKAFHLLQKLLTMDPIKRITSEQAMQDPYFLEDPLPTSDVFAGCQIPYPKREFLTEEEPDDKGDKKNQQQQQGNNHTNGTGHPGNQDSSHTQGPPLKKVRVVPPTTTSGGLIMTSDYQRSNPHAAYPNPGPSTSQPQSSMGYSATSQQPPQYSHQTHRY

[6] = biological target: Mitogen-activated protein kinase 9 (Homo sapiens, UniProt P45984); type: functional;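 note: value from a kinome panel profiling assay, MAPK9 panel entry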
[7] = biological target: MAP/microtubule affinity-regulating kinase 3 (Homo sapiens, UniProt P27448); type: functional;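 note: MARK3 affinity measured as one member of a kinome panel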
Chain of MAP/microtubule affinity-regulating kinase 3 (P27448 whole entry): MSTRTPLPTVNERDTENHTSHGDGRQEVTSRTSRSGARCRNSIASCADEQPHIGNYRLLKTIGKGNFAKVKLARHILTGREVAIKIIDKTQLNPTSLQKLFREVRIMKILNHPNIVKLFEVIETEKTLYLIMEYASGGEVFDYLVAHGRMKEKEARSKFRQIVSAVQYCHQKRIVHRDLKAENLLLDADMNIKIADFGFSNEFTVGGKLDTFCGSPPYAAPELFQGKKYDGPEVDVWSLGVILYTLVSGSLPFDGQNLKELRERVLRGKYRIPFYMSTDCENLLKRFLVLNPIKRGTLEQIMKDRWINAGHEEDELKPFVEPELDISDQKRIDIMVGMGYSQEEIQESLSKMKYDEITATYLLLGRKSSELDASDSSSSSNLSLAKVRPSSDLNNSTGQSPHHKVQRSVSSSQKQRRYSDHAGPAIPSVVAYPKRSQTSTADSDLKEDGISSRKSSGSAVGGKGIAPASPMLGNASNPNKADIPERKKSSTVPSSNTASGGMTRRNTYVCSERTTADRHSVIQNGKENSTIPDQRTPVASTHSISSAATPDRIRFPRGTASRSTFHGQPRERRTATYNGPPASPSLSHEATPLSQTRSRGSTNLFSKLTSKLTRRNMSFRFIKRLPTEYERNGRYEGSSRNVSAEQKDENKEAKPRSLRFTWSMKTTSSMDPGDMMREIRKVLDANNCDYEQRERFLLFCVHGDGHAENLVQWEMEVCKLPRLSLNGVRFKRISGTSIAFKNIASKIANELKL

[8] = biological target: Mitogen-activated protein kinase 10 (Homo sapiens, UniProt P53779); experiment: Navigating the Kinome. Panel member name: MAPK10; type: functional
[9] = biological target: cAMP-dependent protein kinase catalytic subunit PRKX (Homo sapiens, UniProt P51817); type: functional
Chain of cAMP-dependent protein kinase catalytic subunit PRKX (P51817 whole entry): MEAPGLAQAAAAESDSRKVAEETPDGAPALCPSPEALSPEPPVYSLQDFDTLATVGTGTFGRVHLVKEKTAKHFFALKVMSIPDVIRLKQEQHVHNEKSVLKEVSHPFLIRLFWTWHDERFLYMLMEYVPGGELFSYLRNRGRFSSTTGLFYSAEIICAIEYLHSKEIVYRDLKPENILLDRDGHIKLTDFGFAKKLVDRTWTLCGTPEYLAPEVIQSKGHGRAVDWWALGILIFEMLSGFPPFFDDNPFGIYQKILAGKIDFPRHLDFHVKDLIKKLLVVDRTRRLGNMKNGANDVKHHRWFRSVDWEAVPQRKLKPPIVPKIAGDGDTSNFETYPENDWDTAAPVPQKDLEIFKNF

[10] = biological target: Tyrosine-protein kinase JAK2 (Homo sapiens, UniProt O60674); type: functional;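 note: JAK2 tested as one member of a kinase panel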
[11] = biological target: Fibroblast growth factor receptor 1 (Homo sapiens, UniProt P11362); type: functional
Chain of Fibroblast growth factor receptor 1 (P11362 whole entry): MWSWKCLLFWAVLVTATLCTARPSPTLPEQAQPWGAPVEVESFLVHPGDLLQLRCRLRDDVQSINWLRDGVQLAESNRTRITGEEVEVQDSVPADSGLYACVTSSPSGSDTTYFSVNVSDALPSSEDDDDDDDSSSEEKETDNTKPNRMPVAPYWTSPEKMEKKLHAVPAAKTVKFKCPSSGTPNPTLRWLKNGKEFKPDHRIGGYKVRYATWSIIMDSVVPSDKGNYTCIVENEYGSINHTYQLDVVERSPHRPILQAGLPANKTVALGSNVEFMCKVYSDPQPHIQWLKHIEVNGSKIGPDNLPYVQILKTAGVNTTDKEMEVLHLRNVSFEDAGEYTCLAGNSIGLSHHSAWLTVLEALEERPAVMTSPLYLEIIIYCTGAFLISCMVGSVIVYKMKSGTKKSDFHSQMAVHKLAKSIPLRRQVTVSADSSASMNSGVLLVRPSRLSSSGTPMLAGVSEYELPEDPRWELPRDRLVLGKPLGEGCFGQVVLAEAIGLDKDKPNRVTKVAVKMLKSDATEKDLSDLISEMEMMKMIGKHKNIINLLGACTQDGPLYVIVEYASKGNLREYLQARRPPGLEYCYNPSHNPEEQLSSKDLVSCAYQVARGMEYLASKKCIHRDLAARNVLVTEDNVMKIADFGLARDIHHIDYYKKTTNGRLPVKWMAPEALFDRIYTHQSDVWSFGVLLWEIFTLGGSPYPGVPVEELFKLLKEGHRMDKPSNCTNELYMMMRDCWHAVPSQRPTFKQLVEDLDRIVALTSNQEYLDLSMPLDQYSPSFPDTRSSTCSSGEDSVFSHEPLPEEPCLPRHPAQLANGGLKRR

[12] = biological target: Serine/threonine-protein kinase TAO1 (Homo sapiens, UniProt Q7L7X3); type: functional
Chain of Serine/threonine-protein kinase TAO1 (Q7L7X3 whole entry): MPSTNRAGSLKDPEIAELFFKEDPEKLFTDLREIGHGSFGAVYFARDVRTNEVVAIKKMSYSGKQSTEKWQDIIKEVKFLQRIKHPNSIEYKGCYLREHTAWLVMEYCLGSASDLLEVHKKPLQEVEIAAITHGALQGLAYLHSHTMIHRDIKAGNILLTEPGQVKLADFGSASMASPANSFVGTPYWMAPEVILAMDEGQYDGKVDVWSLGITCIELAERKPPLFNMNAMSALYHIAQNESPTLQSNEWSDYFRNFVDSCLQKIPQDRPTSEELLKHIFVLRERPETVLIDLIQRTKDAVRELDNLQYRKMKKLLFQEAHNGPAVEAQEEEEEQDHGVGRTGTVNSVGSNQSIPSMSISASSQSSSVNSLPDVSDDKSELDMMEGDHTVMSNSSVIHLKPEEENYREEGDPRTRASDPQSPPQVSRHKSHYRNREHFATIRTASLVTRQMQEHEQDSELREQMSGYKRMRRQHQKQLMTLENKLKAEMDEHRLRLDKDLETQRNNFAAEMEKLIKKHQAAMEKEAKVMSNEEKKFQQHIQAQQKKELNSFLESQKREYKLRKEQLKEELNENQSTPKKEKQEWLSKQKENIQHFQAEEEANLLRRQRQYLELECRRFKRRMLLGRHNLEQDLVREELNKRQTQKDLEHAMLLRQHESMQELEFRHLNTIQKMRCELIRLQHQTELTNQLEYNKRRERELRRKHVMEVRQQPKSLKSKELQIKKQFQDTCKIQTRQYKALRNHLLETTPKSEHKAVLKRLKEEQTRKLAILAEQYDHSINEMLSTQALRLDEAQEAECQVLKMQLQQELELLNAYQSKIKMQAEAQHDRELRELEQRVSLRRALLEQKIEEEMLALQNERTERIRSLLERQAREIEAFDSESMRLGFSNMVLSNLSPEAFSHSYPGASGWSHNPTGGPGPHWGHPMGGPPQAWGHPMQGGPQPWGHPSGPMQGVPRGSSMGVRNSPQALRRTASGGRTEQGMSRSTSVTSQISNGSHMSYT

[13] = biological target: Inhibitor of nuclear factor kappa-B kinase subunit epsilon (Homo sapiens, UniProt Q14164); experiment: Navigating the Kinome. Panel member name: IKBKE; type: functional
Chain of Inhibitor of nuclear factor kappa-B kinase subunit epsilon (Q14164 whole entry): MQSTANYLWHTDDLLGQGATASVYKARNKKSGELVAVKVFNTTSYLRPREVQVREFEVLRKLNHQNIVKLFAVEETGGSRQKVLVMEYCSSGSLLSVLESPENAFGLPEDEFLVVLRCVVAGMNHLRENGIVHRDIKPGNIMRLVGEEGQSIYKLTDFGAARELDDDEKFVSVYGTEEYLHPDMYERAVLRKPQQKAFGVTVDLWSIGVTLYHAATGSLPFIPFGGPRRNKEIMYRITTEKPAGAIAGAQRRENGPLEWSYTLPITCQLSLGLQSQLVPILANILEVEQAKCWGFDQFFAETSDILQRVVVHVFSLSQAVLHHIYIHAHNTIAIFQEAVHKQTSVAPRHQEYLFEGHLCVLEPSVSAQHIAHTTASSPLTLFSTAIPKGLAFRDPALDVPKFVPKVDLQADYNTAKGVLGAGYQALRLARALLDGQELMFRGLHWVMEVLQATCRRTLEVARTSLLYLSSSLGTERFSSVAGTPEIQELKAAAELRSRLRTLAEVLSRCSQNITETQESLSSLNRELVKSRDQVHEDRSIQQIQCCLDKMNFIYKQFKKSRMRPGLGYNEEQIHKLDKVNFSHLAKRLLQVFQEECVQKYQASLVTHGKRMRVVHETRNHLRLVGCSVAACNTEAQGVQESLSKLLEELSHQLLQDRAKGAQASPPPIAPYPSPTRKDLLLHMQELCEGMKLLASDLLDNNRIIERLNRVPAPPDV

Cytochrome P450 1A2 = biological target: T2, Cytochrome P450 1A2 (Homo sapiens, UniProt P05177);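 note: PubChem cytochrome P450 panel assay, CYP1A2 panel member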
T2 sequence (P05177 whole entry): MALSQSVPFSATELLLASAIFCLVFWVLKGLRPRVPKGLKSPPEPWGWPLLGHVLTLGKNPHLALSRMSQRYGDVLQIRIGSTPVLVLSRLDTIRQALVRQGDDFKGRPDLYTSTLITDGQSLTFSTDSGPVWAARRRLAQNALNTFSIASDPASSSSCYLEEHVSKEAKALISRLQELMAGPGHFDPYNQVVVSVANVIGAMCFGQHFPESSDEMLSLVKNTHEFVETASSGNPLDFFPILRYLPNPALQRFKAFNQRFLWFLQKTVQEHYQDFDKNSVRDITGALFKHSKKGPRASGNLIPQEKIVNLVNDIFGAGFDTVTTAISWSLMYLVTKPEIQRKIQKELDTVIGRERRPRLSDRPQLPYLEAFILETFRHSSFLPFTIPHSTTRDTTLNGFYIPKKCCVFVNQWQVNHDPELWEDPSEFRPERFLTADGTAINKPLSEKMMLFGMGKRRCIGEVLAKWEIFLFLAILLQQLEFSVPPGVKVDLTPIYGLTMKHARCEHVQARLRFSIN

## NC(=O)c1ccc(-c2nc(-c3ccc4c(c3)OCO4)c(-c3ccccn3)[nH]2)cc1 [SB-431542]
Activin receptor type-1
  Ki: > 3.98 µM (inactive)
[1]
  Ki: > 2.51 µM (inactive)
[2]
  Ki: > 2.51 µM (inactive)
[3]
  Ki: > 3.98 µM (inactive)
[4]
  Ki: > 3.98 µM (inactive)
[5]
  Ki: > 3.98 µM (inactive)
[6]
  Ki: > 3.98 µM (inactive)
[7]
  Ki: > 5.01 µM (inactive)
[8]
  Ki: > 3.16 µM (inactive)
[9]
  Ki: > 3.16 µM (inactive)
[10]
  Ki: > 2.51 µM (inactive)
[11]
  Ki: > 3.98 µM (inactive)
[12]
  Ki: > 2.51 µM (inactive)
[13]
  Ki: > 3.16 µM (inactive)
Cytochrome P450 1A2
  AC50: 15.8 µM (inconclusive)
